Laboratory results published in BindingDB's records for doi:10.1016/j.bmc.2015.04.057 (Beni-Suef University, 2015).

Experiment: Antiinflammatory activity in mouse RAW264.7 cells assessed as inhibition of LPS-induced iNOS activity incubated for 30 mins prior to LPS challenge measured after 24 hrs by Griess assay

Row | Structure (SMILES) | IC50 [µM]
1 | O=c1sc2ccccc2n1CCCN1CCN(CCCn2c(=O)sc3ccccc32)CC1 | 4.62
2 | O=c1sc2ccccc2n1CCCCN1CCN(CCCn2c(=O)sc3ccccc32)CC1 | 4.51
3 | O=c1oc2ccccc2n1CCCCCN1CCN(CCCn2c(=O)oc3ccccc32)CC1 | 4.86
4 | O=c1oc2ccccc2n1CCCCCCN1CCN(CCCCCn2c(=O)oc3ccccc32)CC1 | 2.9
5 | O=c1oc2ccccc2n1CCCCCCN1CCN(CCCCCCn2c(=O)oc3ccccc32)CC1 | 4.22
6 | O=c1oc2ccccc2n1CCCCCN1CCN(CCCCCn2c(=O)oc3ccccc32)CC1 | 4.43
7 | O=c1sc2ccccc2n1CCCCCCN1CCN(CCn2c(=O)sc3ccccc32)CC1 | 3.43
8 | O=c1sc2ccccc2n1CCCCCCN1CCN(CCCn2c(=O)sc3ccccc32)CC1 | 2.57
9 | O=c1oc2ccccc2n1CCCCCCN1CCN(CCCn2c(=O)oc3ccccc32)CC1 | 4.5
10 | O=c1oc2ccccc2n1CCCCCN1CCN(CCn2c(=O)oc3ccccc32)CC1 | 4.98
11 | O=c1oc2ccccc2n1CCCCCCN1CCN(CCn2c(=O)oc3ccccc32)CC1 | 4.66
12 | O=c1sc2ccccc2n1CCCCCN1CCN(CCn2c(=O)sc3ccccc32)CC1 | 4.51
13 | O=c1sc2ccccc2n1CCCCCN1CCN(CCCCCn2c(=O)sc3ccccc32)CC1 | 0.41
14 | O=c1oc2ccccc2n1CCCCCN1CCN(CCCCn2c(=O)oc3ccccc32)CC1 | 4.54

Now from value to compound:

Row | IC50 [µM] | Structure (SMILES)
15 | 1.12 | c1ccc2oc(SCCCCN3CCN(CCCCSc4nc5ccccc5o4)CC3)nc2c1
16 | 2.55 | O=c1sc2ccccc2n1CCCCCN1CCN(CCCn2c(=O)sc3ccccc32)CC1
17 | 1.77 | O=c1oc2ccccc2n1CCCCCCN1CCN(CCCCn2c(=O)oc3ccccc32)CC1
18 | 0.29 | O=c1sc2ccccc2n1CCCCCCN1CCN(CCCCCn2c(=O)sc3ccccc32)CC1
19 | 0.51 | O=c1sc2ccccc2n1CCCCCCN1CCN(CCCCn2c(=O)sc3ccccc32)CC1
20 | 0.28 | O=c1sc2ccccc2n1CCCCCCN1CCN(CCCCCCn2c(=O)sc3ccccc32)CC1
21 | 0.41 | c1ccc2sc(SCCCCN3CCN(CCCCSc4nc5ccccc5s4)CC3)nc2c1
